Assay results reported in paper PMC3260207, “Site-Directed Mutations and the Polymorphic Variant Ala160Thr in the Human Thromboxane Receptor Uncover a Structural Role for Transmembrane Helix 4” (PLoS ONE, 2012).
Positions count from the first letter of the chain named.

What was measured:
Type in all cases: cell-based
[1] = biological target: T1, TP F115A mutant (Homo sapiens, UniProt P21731, F115A); test: Intracellular calcium mobilization (Fluo-4NW) in transfected HEK293T cells; design: expressed in transfected cells; transient, pMT4; conditions: read-out: EC50 of agonist U46619 (calcium mobilized), transiently transfected HEK293T cells, mean ± S.E
T1 sequence (P21731 1-343 F115A): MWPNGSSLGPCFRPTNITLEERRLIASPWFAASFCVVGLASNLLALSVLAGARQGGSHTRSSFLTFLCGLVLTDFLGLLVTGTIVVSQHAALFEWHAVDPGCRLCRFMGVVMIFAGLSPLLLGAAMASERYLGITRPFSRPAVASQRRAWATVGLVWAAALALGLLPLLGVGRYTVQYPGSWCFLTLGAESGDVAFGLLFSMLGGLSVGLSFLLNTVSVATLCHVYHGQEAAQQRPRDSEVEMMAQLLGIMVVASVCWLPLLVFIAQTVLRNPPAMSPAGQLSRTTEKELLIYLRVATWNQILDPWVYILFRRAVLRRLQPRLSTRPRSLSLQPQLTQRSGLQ
Method: (§1) Amino acid substitutions were introduced into the synthetic TPα gene carried by the expression vector pMT4 as described previously, [29]. DNA sequences of all the mutated genes were verified by automated DNA sequencing. To minimize variations in transfection efficiency, the total amount transfected DNA was kept constant in all cases at 1 µg of DNA per 7×10^5 cells. The wild type TP or mutant genes were expressed in COS-1 cells using a DEAE-dextran based transient transfection method, [29], and in HEK293T cells using lipofectamine 2000 (Invitrogen). Except unless specified, the membranes prepared from COS-1 cells were used for radioligand binding assays and immunoblots. For intracellular calcium determination assays and immunofluorescence imaging, HEK293T cells were used. […] The protein concentration in the resuspended membrane pellet was determined using a modified DC protein assay kit from Bio-Rad Laboratories (Hercules, CA).
(§2) Changes in intracellular calcium were measured by using the fluorescent calcium sensitive dye Fluo-4NW (Invitrogen). […] Dose–response curves were generated and EC50 values calculated by nonlinear regression analysis using PRISM software version 5.0 (GraphPad Software Inc, San Diego, CA) after subtracting the responses of mock-transfected cells stimulated with same concentrations of agonists.

[2] = biological target: T2, TP A160V/F115A double mutant (Homo sapiens, UniProt P21731, A160V/F115A); test: as above; design: expressed in transfected cells; transient, pMT4; conditions: read-out: EC50 of agonist U46619 (calcium mobilized), transiently transfected HEK293T cells, mean ± S.E
T2 sequence (P21731 1-343 F115A/A160V): T1 sequence (P21731 1-343 F115A) with A160V
Method: as §1, §2

[3] = biological target: T3, TP A160T mutant (nsSNP variant) (Homo sapiens, UniProt P21731, A160T); test: as above; conditions: read-out: EC50 of agonist U46619 (calcium mobilized), transiently transfected HEK293T cells, mean ± S.E
T3 construct: expressed in transfected cells; HEK293T (calcium assays)
T3 sequence (P21731 1-343 A160T): T1 sequence (P21731 1-343 F115A) with A115F, A160T
Method: Amino acid substitutions were introduced into the synthetic TPα gene carried by the expression vector pMT4 as described previously, [29]. DNA sequences of all the mutated genes were verified by automated DNA sequencing. To minimize variations in transfection efficiency, the total amount transfected DNA was kept constant in all cases at 1 µg of DNA per 7×10^5 cells. The wild type TP or mutant genes were expressed in COS-1 cells using a DEAE-dextran based transient transfection method, [29], and in HEK293T cells using lipofectamine 2000 (Invitrogen). Except unless specified, the membranes prepared from COS-1 cells were used for radioligand binding assays and immunoblots. For intracellular calcium determination assays and immunofluorescence imaging, HEK293T cells were used. For transient transfections of HEK293T cells using the plasmid pMT4, lipofectamine 2000 (Invitrogen) mediated transfection was used as described by the manufacturer. Membranes were prepared using Buffers A and B and as described previously, [29]. The protein concentration in the resuspended membrane pellet was determined using a modified DC protein assay kit from Bio-Rad Laboratories (Hercules, CA).
(§3) Changes in intracellular calcium were measured by using the fluorescent calcium sensitive dye Fluo-4NW (Invitrogen). After 6–8 hours of transient transfection of HEK293T cells using lipofectamine 2000, 100,000 viable cells were plated into each well of a 96-well tissue culture treated BD-falcon optilux plates. Cells mock transfected with vector pMT4 alone were used as a negative control. Following 24 hours of incubation at 37°C, the media was removed and cells were incubated with the dye Fluo-4NW (Invitrogen) containing 77 µg/ml of probenecid for 1 hour, as recommended by the manufacturer. […] Dose–response curves were generated and EC50 values calculated by nonlinear regression analysis using PRISM software version 5.0 (GraphPad Software Inc, San Diego, CA) after subtracting the responses of mock-transfected cells stimulated with same concentrations of agonists.

[4] = biological target: T3, TP A160T mutant (nsSNP variant); test: Reversal of basal (agonist-independent) calcium mobilization in transfected HEK293T cells; conditions: HEK293T cells pre-treated with 1 µM unlabelled SQ 29,548, p<0.05
Method: as §3
For estimation of calcium mobilized using the non-ratiometric calcium indicator Fluo-4NW, the ΔF/F ratio which approximately indicates calcium is calculated using the equation (19), ΔF/F = (F-Fbase)/(Fbase -B). Where F is the measured fluorescence intensity of Fluo-4NW, Fbase is the fluorescence intensity of Fluo-4NW in the cell before stimulation, and B is the background signal determined from areas adjacent to the cell. […]

| Structure (SMILES) | EC50 [1] [nM] | EC50 [2] [nM] | EC50 [3] [nM] | Effect on basal (agonist-independent) calcium mobilization [4] |
| --- | --- | --- | --- | --- |
| CCCCC[C@H](O)/C=C/[C@@H]1[C@@H](C/C=C\CCCC(=O)O)[C@H]2CO[C@@H]1C2 [U46619] | 2 ± 0.3 | 43.5 ± 1.5 | 5.5 ± 0.3 |  |
| O=C(O)CCC/C=C\C[C@@H]1[C@H](CNNC(=O)Nc2ccccc2)[C@H]2CC[C@@H]1O2 [SQ 29,548] |  |  |  | significant decrease in basal activity |
